{"source": "patent US20080063704A1", "about": "“Stable gabapentin compositions” (priority 2004, published 2008)", "format_in_all_cases": "physicochemical", "key": {"[1]": {"assay": "Pre-formulation excipient compatibility study: Appearance", "source_text": "(§1) All the ingredients were passed through 20 mesh screen and blended together. The results of all the pre-formulation compatibility studies are given in Tables 25 to 39, including comparative results for the drug substance (Table 39) and UK reference product (Table 38) as controls.\n(§2) Aim: To carry out preformulation excipient compatibility studies for Gabapentin capsules\n(§3) Binary mixtures to be evaluated (with and without water as necessary):\n(§4) 1. Drug and diluents (1:0.5)\n(§5) 2. Drug and lubricants(1:0.1)\n(§6) 3. Drug and solubilizer (1:0.001)\n(§7) 4. Proposed formulation from the in vitro formulation trials to confirm the extent of interactions and identify suitably stable formulations.\n(§8) Where humidity controls are not available a defined amount of water may be added to the samples. Storage of samples was in petridishes and in stoppered glass vials.\n(§9) The following tests were performed at each interval:\n(§10) The following tests were performed at 14 and 28 day intervals."}, "[2]": {"assay": "Pre-formulation excipient compatibility study: HPLC assay", "source_text": "as §1, §2, §3, §4, §5, §6, §7, §8, §9\n2. HPLC assay (as for HPLC related substances assay but calibrated for gabapentin resolution rather than for related substances)"}, "[3]": {"assay": "Pre-formulation excipient compatibility study: HPLC assay for related substances", "source_text": "HPLC Assay for Related Substances\nas §1, §2, §3, §4, §5, §6, §7\nSignificant degradation is defined as\n1. >0.5% w/w formation of lactam degradation product at conditions up to 40° C./75% RH.\n2. Formation of other degradants at levels >0.1% w/w.\n3. Greater relative instability of mixture or formulation to Gabapentin drug substance and Neurotonin capsules.\nas §8, §10\n3. HPLC assay for related substances"}}, "data": [{"smiles": "NCC1(CC(=O)O)CCCCC1", "note": "[Gabapentin]", "values": [{"measurement": "Description", "setting": "[1]; 25° C./60% RH, 3 days", "value": "White"}, {"measurement": "Description", "setting": "[1]; 25° C./60% RH, 7 days", "value": "White"}, {"measurement": "Description", "setting": "[1]; 25° C./60% RH, 14 days", "value": "White"}, {"measurement": "Description", "setting": "[1]; 25° C./60% RH, 28 days", "value": "White"}, {"measurement": "Description", "setting": "[1]; 40° C./75% RH, 3 days", "value": "White"}, {"measurement": "Description", "setting": "[1]; 40° C./75% RH, 7 days", "value": "White"}, {"measurement": "Description", "setting": "[1]; 40° C./75% RH, 14 days", "value": "White"}, {"measurement": "Description", "setting": "[1]; 40° C./75% RH, 28 days", "value": "White"}, {"measurement": "Description", "setting": "[1]; 50° C., 3 days", "value": "White"}, {"measurement": "Description", "setting": "[1]; 50° C., 7 days", "value": "White"}, {"measurement": "Description", "setting": "[1]; 50° C., 14 days", "value": "White"}, {"measurement": "Description", "setting": "[1]; 50° C., 28 days", "value": "White"}, {"measurement": "Description", "setting": "[1]; Initial", "value": "White"}, {"measurement": "Assay", "setting": "[2]; 25° C./60% RH, 7 days", "value": 98.6, "unit": "%"}, {"measurement": "Assay", "setting": "[2]; 25° C./60% RH, 14 days", "value": 98.6, "unit": "%"}, {"measurement": "Assay", "setting": "[2]; 25° C./60% RH, 28 days", "value": 98.51, "unit": "%"}, {"measurement": "Assay", "setting": "[2]; 40° C./75% RH, 7 days", "value": 98.53, "unit": "%"}, {"measurement": "Assay", "setting": "[2]; 40° C./75% RH, 14 days", "value": 98.4, "unit": "%"}, {"measurement": "Assay", "setting": "[2]; 40° C./75% RH, 28 days", "value": 97.79, "unit": "%"}, {"measurement": "Assay", "setting": "[2]; 50° C., 7 days", "value": 98.5, "unit": "%"}, {"measurement": "Assay", "setting": "[2]; 50° C., 14 days", "value": 98.5, "unit": "%"}, {"measurement": "Assay", "setting": "[2]; 50° C., 28 days", "value": 98.1, "unit": "%"}, {"measurement": "Assay", "setting": "[2]; Initial", "value": 99.4, "unit": "%"}, {"measurement": "Impurities a) Lactam content", "setting": "[3]; 25° C./60% RH, 14 days", "value": "Nil"}, {"measurement": "Impurities b) Single largest individual Impurities", "setting": "[3]; 25° C./60% RH, 14 days", "value": "Nil"}, {"measurement": "Impurities c) Total other Impurities", "setting": "[3]; 25° C./60% RH, 14 days", "value": "Nil"}, {"measurement": "Impurities d) Total Impurities", "setting": "[3]; 25° C./60% RH, 14 days", "value": "Nil"}, {"measurement": "Impurities a) Lactam content", "setting": "[3]; 25° C./60% RH, 28 days", "value": "Nil"}, {"measurement": "Impurities b) Single largest individual Impurities", "setting": "[3]; 25° C./60% RH, 28 days", "value": "Nil"}, {"measurement": "Impurities c) Total other Impurities", "setting": "[3]; 25° C./60% RH, 28 days", "value": "Nil"}, {"measurement": "Impurities d) Total Impurities", "setting": "[3]; 25° C./60% RH, 28 days", "value": "Nil"}, {"measurement": "Impurities a) Lactam content", "setting": "[3]; 40° C./75% RH, 14 days", "value": "Nil"}, {"measurement": "Impurities b) Single largest individual Impurities", "setting": "[3]; 40° C./75% RH, 14 days", "value": "Nil"}, {"measurement": "Impurities c) Total other Impurities", "setting": "[3]; 40° C./75% RH, 14 days", "value": "Nil"}, {"measurement": "Impurities d) Total Impurities", "setting": "[3]; 40° C./75% RH, 14 days", "value": "Nil"}, {"measurement": "Impurities a) Lactam content", "setting": "[3]; 40° C./75% RH, 28 days", "value": "Nil"}, {"measurement": "Impurities b) Single largest individual Impurities", "setting": "[3]; 40° C./75% RH, 28 days", "value": "Nil"}, {"measurement": "Impurities c) Total other Impurities", "setting": "[3]; 40° C./75% RH, 28 days", "value": "Nil"}, {"measurement": "Impurities d) Total Impurities", "setting": "[3]; 40° C./75% RH, 28 days", "value": "Nil"}, {"measurement": "Impurities a) Lactam content", "setting": "[3]; 50° C., 14 days", "value": 0.004, "unit": "%"}, {"measurement": "Impurities b) Single largest individual Impurities", "setting": "[3]; 50° C., 14 days", "value": "Nil"}, {"measurement": "Impurities c) Total other Impurities", "setting": "[3]; 50° C., 14 days", "value": "Nil"}, {"measurement": "Impurities d) Total Impurities", "setting": "[3]; 50° C., 14 days", "value": "Nil"}, {"measurement": "Impurities a) Lactam content", "setting": "[3]; 50° C., 28 days", "value": 0.004, "unit": "%"}, {"measurement": "Impurities b) Single largest individual Impurities", "setting": "[3]; 50° C., 28 days", "value": "Nil"}, {"measurement": "Impurities c) Total other Impurities", "setting": "[3]; 50° C., 28 days", "value": "Nil"}, {"measurement": "Impurities d) Total Impurities", "setting": "[3]; 50° C., 28 days", "value": "Nil"}, {"measurement": "Impurities a) Lactam content", "setting": "[3]; Initial", "value": "Nil"}, {"measurement": "Impurities b) Single largest individual Impurities", "setting": "[3]; Initial", "value": "Nil"}, {"measurement": "Impurities c) Total other Impurities", "setting": "[3]; Initial", "value": "Nil"}, {"measurement": "Impurities d) Total Impurities", "setting": "[3]; Initial", "value": "Nil"}]}]}
